Like-named read-outs stand apart in the source and are kept apart here.
Tests used:
RPMI 8226 cells = assay: Antiproliferative assay (XTT, 72 h); format: cell-based, human; conditions: for IC50: RPMI 8226 cells, 72 h, XTT, mean ± SD, n = 3; for Fold less active than compound 3 in RPMI 8226 cells: compared to compound 3
RPMI 8226/BTZ100 cells = assay: cells; format: cell-based, human; conditions: for IC50: read-out: IC50 Value Antiproliferative Activity RPMI 8226/BTZ100
26S proteasome = molecular target: T1, 26S proteasome (Homo sapiens, UniProt P28074); assay: Proteasome inhibitory activity (Suc-LLVY-amc) in RPMI 8226 cell lysate; format: biochemical
T1 sequence (P28074 60-263): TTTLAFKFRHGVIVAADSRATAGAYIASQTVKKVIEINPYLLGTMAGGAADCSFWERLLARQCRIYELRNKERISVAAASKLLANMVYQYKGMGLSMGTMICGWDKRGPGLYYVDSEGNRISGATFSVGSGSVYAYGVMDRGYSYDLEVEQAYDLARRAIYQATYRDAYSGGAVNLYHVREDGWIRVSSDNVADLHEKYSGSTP
Description: RPMI 8226 cells (1 × 10^6 cells/mL) were collected, centrifuged, and washed twice with cold PBS (Gibco). The supernatant was discarded, and 200 μL of ice-cold lysis buffer (NP40 cell lysis buffer (Invitrogen, Eugene, OR, USA), supplemented with 1 mM PMSF (Sigma) and protease inhibitor cocktail (Sigma), was added to the pellet. Cells were kept on ice for 30 min and vortexed every 10 min. Samples were then centrifuged at 4 °C for 10 min at 16,000× g. Supernatant containing the proteins was collected. Protein quantification was performed using the Coomassie (Bradford) Protein Assay Kit (ThermoFisher, Waltham, MA, USA) following the manufacturer instructions. In each well of a 96-well black plate (ThermoFisher), 10 µg of proteins were mixed with assay buffer (50 mM Tris-HCl, pH 7.5, 40 mM KCl, 5 mM MgCl2, 0.5 mM ATP, 1 mM DTT, 0.5 mg/mL BSA) in 180 µL total volume. […] The plate was then incubated for 30 min at 37 °C. After incubation, the reaction was started by adding the fluorometric peptide substrate Suc-LLVY-amc (Bio-Techne, Minneapolis, MN, USA) at a final concentration of 100 µM, except for the blank wells. Following 1 h incubation at 37 °C in the dark, the fluorescence signal was red (excitation: 380 nm, emission: 440–460 nm) using a Cytation 3 plate reader (BioTek). The percentage of 26S proteasome activity was measured by comparing the fluorescence of the sample treated with the vehicle control wells and multiplied by 100. The IC50 value was calculated as mentioned above, and each compound was tested in triplicate in three independent experiments.

HDAC = HDAC inhibitory activity in RPMI 8226 cells (MAL substrate, UHPLC-MS); format: cell-based, human; conditions: 8 h; for Inhibition of HDAC activity: 10 µM
Description: RPMI 8226 cells were seeded in 96-well plates (Costar) at a density of 15,000 cells per well in 25 µL of medium containing the HDAC substrate N-(4-methyl-7-aminocoumarinyl)-Nα-(t-butoxycarbonyl)-Nω-acetyllysineamide (21 µM, MAL, Sigma). The cells were directly treated with the compounds at 10 µM or with Ent (0.4–250 µM) for 8 h to obtain a final volume of 50 µL. […] Following the incubation, the reaction was stopped by adding 10 µL of 6X RIPA buffer, supplemented with protease inhibitor (Sigma). Then, 160 µL of cold acetonitrile were added and the plate was placed for 10 min at −80 °C. The plate was centrifuged at 5000× g for 10 min at 4 °C, and the supernatant was transferred into a UHPLC-adapted 96-well plate (Nunc 96-well plate conical bottom, ThermoFisher) and sealed. The substrate (MAL) and its deacetylated product (dMAL) were measured using a UHPLC-MS method as previously described. The percentage of HDAC inhibition is given by 100 − [(tested sample × 100/control sample)], and the dose-response curve of Ent was established.

[1] = tested on: 3D co-culture spheroids containing RPMI 8226 cells and mesenchymal stem cells (MSC) in a 5:1 ratio; assay: Antiproliferative assay in 3D co-culture spheroids (CellTiter-Glo 3D, 48 h); format: cell-based, human; conditions: RPMI 8226 + MSC 5:1 spheroids, mean ± SD, n = 3
Description: The multiple myeloma human plasma cells RPMI 8226 were purchased from American Type Culture Collection (ATCC, Manassas, VA, USA) and cultured in RPMI 1640 medium (Gibco, Paisley, UK) supplemented with 50 µg/mL streptomycin sulfate, 50 U/mL penicillin G sodium salt (Gibco, Grand Island, NY, USA) and 10% fetal bovine serum (FBS) (Biowest, Nuaillé, France). […] Human MSC from the bone marrow were purchased from PromoCell and were cultured in Mesenchymal Stem Cell Growth Medium 2 (PromoCell, Heidelberg, Germany) supplemented with 100 μg/mL streptomycin sulfate and 100 U/mL penicillin G sodium salt.
RPMI 8226 cells and MSC were mixed in a 5:1 ratio. The cell mixture was centrifuged, and medium containing 20% collagen I (Gibco) adjusted to pH 7 was added to the cell pellet. Five μL drops were plated in each well of an ice-cold 96-well ultra-low attachment U-bottom plate (Corning, Kennebunk, MA, USA) and the plate was incubated for 30 min at 37 °C and 5% CO2 atmosphere. After the incubation, 200 μL of RPMI 1640 medium (Gibco) supplemented with 50 µg/mL streptomycin sulfate, 50 U/mL penicillin G sodium salt (Gibco) and 10% FBS (Biowest) was added to each well. The 3D spheroids were formed after 48 h.
RPMI 8226 and RPMI 8226/BTZ100 cells were seeded in 96-well plates (Costar, Kennebunk, MA, USA) at a density of 15,000 cells per well and directly treated for 72 h with the various compounds using increasing concentrations (0.31–2000 nM). […] Following the treatment, 100 μL of medium was carefully removed from each well and collagenase (1.5 μL of a 100 mg/mL solution, Sigma) was added. The plate was shaken at 37 °C for 10 min at 350 rpm. Then, 100 μL of CellTiter-Glo 3D reagent (Promega, Fitchburg, WI, USA) was added to each well. The plate was incubated for 5 min at 37 °C under agitation at 250 rpm, followed by 25 min at room temperature without agitation. Finally, the luminescence was measured using a Cytation 3 plate reader (BioTek). The percentage of cell proliferation and calculation of the IC50 value were determined as previously described. Each compound was tested in triplicate in three independent experiments.

[2] = Drug combination of Ent and BTZ, antiproliferative effect (Combenefit, CompuSyn); format: cell-based; conditions: read-out: IC50 in drug combination experiment
Description: Combinations were evaluated using Combenefit data analysis.
Statistical analysis was performed in GraphPad Prism 9 (GraphPad) using one-way ANOVA for the proteasome inhibition assay. Combenefit (Cancer Research UK Cambridge Institute, Cambridge, UK) and CompuSyn software were used for drug combination analyses. The CI was calculated through the Chou-Talalay method using Compusyn. Data are expressed as mean ± standard deviation (SD).

[3] = ratio of IC50 in resistant vs. parental cells
[4] = 26S proteasome in RPMI 8226 cell lysate, 30 min preincubation, Suc-LLVY-amc 100 µM, mean ± SD, n = 3; read-out: IC50 Value PI Activity
[5] = RPMI 8226 cells resistant to BTZ, 72 h, XTT, mean ± SD, n = 3
[6] = read-out: IC50 Value PI Activity; 26S proteasome in RPMI 8226 cell lysate, 30 min preincubation, Suc-LLVY-amc 100 µM, mean ± SD, n = 3

Row | SMILES | IC50 (RPMI 8226 cells; Homo sapiens) | IC50 (RPMI 8226/BTZ100 cells; Homo sapiens, RPMI-8226, 72 h) | Increased resistance (RPMI 8226/BTZ100 vs. RPMI 8226) (RPMI 8226/BTZ100 cells; [3]) | IC50 (26S proteasome; [4]) | Inhibition of HDAC activity (HDAC) | IC50 ([1]; Homo sapiens) | IC50 (RPMI 8226 cells) | Fold less active than compound 3 in RPMI 8226 cells (RPMI 8226 cells) | IC50 (RPMI 8226/BTZ100 cells; [5]) | IC50 (26S proteasome; [6]) | IC50 [1] | IC50 [2] | Increased resistance (RPMI 8226/BTZ100 vs. RPMI 8226) (RPMI 8226/BTZ100 cells) | IC50 (HDAC; 0.4–250 µM, read-out: HDAC inhibition IC50)
1 | CC(C)C[C@H](NC(=O)[C@@H](Cc1ccccc1)NC(=O)c1cnc(C(=O)Nc2ccccc2N)cn1)B1OC2CC3CC(C3(C)C)[C@]2(C)O1 (stereo partly drawn) [Compound 3, N^2-(2-aminophenyl)-N^5-((2R)-1-(((1R)-3-methyl-1-((3aS)-3a,5,5-trimethylhexahydro-4,6-methanobenzo[d][1,3,2]dioxaborol-2-yl)butyl)amino)-1-oxo-3-phenylpropan-2-yl)pyrazine-2,5-dicarboxamide] | 9.5 ± 1.4 nM | 158 ± 15.8 nM | 16.6 fold | 27.2 ± 6.2 nM | 33% | 13.1 ± 6.9 nM |  |  |  |  |  |  |  | 
2 | CC(C)C[C@H](NC(=O)[C@@H](Cc1ccc(N(CCCl)CCCl)cc1)NC(=O)c1cnc(C(=O)Nc2ccccc2N)cn1)B1OC2CC3CC(C3(C)C)[C@]2(C)O1 (stereo partly drawn) [Compound 11, N^2-(2-aminophenyl)-N^5-((2R)-3-(4-(bis(2-chloroethyl)amino)phenyl)-1-(((1R)-3-methyl-1-((3aS)-3a,5,5-trimethylhexahydro-4,6-methanobenzo[d][1,3,2]dioxaborol-2-yl)butyl)amino)-1-oxopropan-2-yl)pyrazine-2,5-dicarboxamide] |  |  |  |  | 25% |  | 22.9 ± 2.6 nM | ~2.4 times | 462 ± 107 nM | > 50 nM | 39.9 ± 12.1 nM |  |  | 
3 | CC(C)C[C@H](NC(=O)[C@@H](Cc1ccc(N(CCCl)CCCl)cc1)NC(=O)c1cnccn1)B1OC2CC3CC(C3(C)C)[C@]2(C)O1 (stereo partly drawn) [Compound 8, N-((2R)-3-(4-(bis(2-chloroethyl)amino)phenyl)-1-(((1R)-3-methyl-1-((3aS)-3a,5,5-trimethylhexahydro-4,6-methanobenzo[d][1,3,2]dioxaborol-2-yl)butyl)amino)-1-oxopropan-2-yl)pyrazine-2-carboxamide] |  |  |  |  |  |  | 19.6 ± 0.4 nM |  | 1010 ± 88.6 nM | 12.1 ± 1.1 nM | 30 ± 1.6 nM |  |  | 
4 | CC(C)C[C@H](NC(=O)[C@H](Cc1ccccc1)NC(=O)c1cnccn1)B(O)O [BTZ, bortezomib] | 2.1 ± 0.4 nM | 245 ± 11.1 nM |  |  |  | 6.4 ± 1.6 nM |  |  |  |  |  | 3.3 nM | 116.8 fold | 
5 | CC(C)C[C@H](NC(=O)[C@@H](Cc1ccccc1)NC(=O)Cc1ccc(C(=O)Nc2ccc(F)cc2N)cc1)B1OC2CC3CC(C3(C)C)[C@@]2(C)O1 (stereo partly drawn) [Compound 7, N-(2-amino-4-fluorophenyl)-4-(2-(((2R)-1-(((1R)-3-methyl-1-((3aR)-3a,5,5-trimethyl-hexahydro-4,6-methanobenzo[d][1,3,2]dioxaborol-2-yl)butyl)amino)-1-oxo-3-phenylpropan-2-yl)amino)-2-oxoethyl)benzamide] | 31.4 ± 1.7 nM | 831 ± 139 nM |  | 7.2 ± 1.7 nM | 37% | 89.3 ± 13.6 nM |  |  |  |  |  |  |  | 
6 | CC(C)C[C@H](NC(=O)[C@@H](Cc1ccc(N(CCCl)CCCl)cc1)NC(=O)c1cnc(Cl)cn1)B1OC2CC3CC(C3(C)C)[C@]2(C)O1 (stereo partly drawn) [Compound 9, N-((2R)-3-(4-(bis(2-chloroethyl)amino)phenyl)-1-(((1R)-3-methyl-1-((3aS)-3a,5,5-trimethylhexahydro-4,6-methanobenzo[d][1,3,2]dioxaborol-2-yl)butyl)amino)-1-oxopropan-2-yl)-5-chloropyrazine-2-carboxamide] |  |  |  |  |  |  | 37.6 ± 1.1 nM |  | 1030 ± 205 nM | > 50 nM | 188 ± 42.5 nM |  |  | 
7 | CC(C)C[C@H](NC(=O)[C@@H](Cc1ccccc1)NC(=O)c1cnc(C(=O)NCc2ccc(C(=O)Nc3ccccc3N)cc2)cn1)B1OC2CC3CC(C3(C)C)[C@@]2(C)O1 (stereo partly drawn) [Compound 5, N^2-(4-((2-aminophenyl)carbamoyl)benzyl)-N^5-((2R)-1-(((1R)-3-methyl-1-((3aR)-3a,5,5-trimethylhexahydro-4,6-methanobenzo[d][1,3,2]dioxaborol-2-yl)butyl)amino)-1-oxo-3-phenylpropan-2-yl)pyrazine-2,5-dicarboxamide] | 25.2 ± 2.2 nM | 203 ± 36.1 nM | 8.0 fold | 14.8 ± 2.5 nM |  | 65.1 ± 14.1 nM |  |  |  |  |  |  |  | 
8 | CC(C)C[C@H](NC(=O)[C@@H](Cc1ccccc1)NC(=O)c1ccc(C(=O)Nc2ccccc2N)cc1)B1OC2CC3CC(C3(C)C)[C@]2(C)O1 (stereo partly drawn) [Compound 2, N^1-(2-aminophenyl)-N^4-((2R)-1-(((1R)-3-methyl-1-((3aS)-3a,5,5-trimethylhexahydro-4,6-methanobenzo[d][1,3,2]dioxaborol-2-yl)butyl)amino)-1-oxo-3-phenylpropan-2-yl)terephthalamide] | 37.1 ± 2.9 nM | 112 ± 13 nM | 3.0 fold | 9.5 ± 2.3 nM | 50% | 32.5 ± 7.5 nM |  | ca. 4 times |  |  |  |  |  | 
9 | Nc1ccccc1NC(=O)c1ccc(CNC(=O)OCc2cccnc2)cc1 [Ent, entinostat] | 329 ± 25.7 nM | 562 ± 51.7 nM |  |  | 51% | 349 ± 133 nM |  |  |  |  |  |  |  | 9.3 ± 0.7 µM

Source: PMC9920246, “Entinostat-Bortezomib Hybrids against Multiple Myeloma” (Molecules, 2023)
